Structures can show the parent of a compound that is named as a salt.

Among the data in US8653083B2, “Hedgehog pathway antagonists to treat disease” (The Johns Hopkins University, priority 2005, dated 2014) are survival, tumor volume change and IC50 values, retold here.

One test concerns AT6.3 metastasis model. Briefly: AT6.3 Dunning prostate cancer metastasis model, survival. The format is in vivo, mice. The note with it: cyclopamine comparator, dose not given.
As to `CC1=C2C[C@H]3[C@@H](CC=C4C[C@@H](O)CC[C@@]43C)[C@@H]2CC[C@]12O[C@@H]1C[C@H](C)CN[C@H]1[C@H]2C` [Cyclopamine], the survival result is reported as “extending survival”.

For another test, the system named is 22RV1 xenografts. Briefly: 22RV1 human prostate cancer xenografts in athymic mice, tumor growth. It counts as in vivo. The note with it: itraconazole 37.5 mg/kg. On the technique in general: A xenograft is tissue or cells of one species grown in another, often human tumour cells in immunodeficient mice.
`CCC(C)n1ncn(-c2ccc(N3CCN(c4ccc(OCC5COC(Cn6cncn6)(c6ccc(Cl)cc6Cl)O5)cc4)CC3)cc2)c1=O` (racemic) [Itraconazole, (±)-cis-4-[4-[4-[4-[[2-(2,4-dichlorophenyl)-2-(1H-1,2,4-triazol-1-yl-methyl)-1,3-dioxolan-4-yl)methoxy]phenyl]-1-piperazinyl]phenyl]-2,4-dihydro-2-(1-methylpropyl)-3H-1,2,4-triazol-3-one]: the tumor volume change is given as −100 % volume.

Another test has as its system Sonic hedgehog (Shh) signaling. Briefly: Cultured cell based Sonic hedgehog (Shh) signaling assay, luciferase reporter.
Settings: not given
How it is done: A library of drugs was previously tested in humans for agents that antagonize Hedgehog signaling. […] The assays used for the screen for Hh pathway antagonists proceeded essentially as described in reference 5. Briefly, each candidate compound was added at 10 uM to a cultured cell based Sonic hedgehog (Shh) signaling assay in high through-put format. This assay utilized cells with a stably integrated firefly luciferase reporter that is responsive to ShhN signaling. These cells also contain a stably integrated, constitutively expressed Renila luciferase gene that can be used for normalization of response to Shh, and used also to monitor cell health.
A general note: Reporter assays use an easily measured gene product as a stand-in for the process of interest.
In turn, `COc1cc2c(c(OC)c1OC)-c1ccc(=O)c(O)cc1[C@@H](NC(C)=O)CC2` [COLCHICEINE] displayed a 50% inhibitory concentration (IC50) of 0.3 to 1 µM. The same measure, in the same setting: to `C[C@@H]1C[C@@H]([C@H](O)CC2CC(=O)NC(=O)C2)C(=O)[C@@H](C)C1` [Cycloheximide] belongs 0.3 to 1 µM. Still for that read-out and setting: to `CC1=C2C[C@H]3[C@@H](CC=C4C[C@@H](O)CC[C@@]43C)[C@@H]2CC[C@]12O[C@@H]1C[C@H](C)CN[C@H]1[C@H]2C` [Cyclopamine] belongs 0.3 to 1 µM. `C=C(C)[C@H]1Cc2c(ccc3c2O[C@@H]2COc4cc(OC)c(OC)cc4[C@@H]2C3=O)O1` [ROTENONE] came in with an IC50 of 1 to 3 µM.

Still in this test, the particulars now being: Hh pathway inhibition; cells with ShhN-responsive firefly luciferase reporter, normalized to Renila luciferase; titration of 10 uM hits; read-out: IC50.
Consider `CCC(C)n1ncn(-c2ccc(N3CCN(c4ccc(OCC5COC(Cn6cncn6)(c6ccc(Cl)cc6Cl)O5)cc4)CC3)cc2)c1=O` (racemic) [Itraconazole, (±)-cis-4-[4-[4-[4-[[2-(2,4-dichlorophenyl)-2-(1H-1,2,4-triazol-1-yl-methyl)-1,3-dioxolan-4-yl)methoxy]phenyl]-1-piperazinyl]phenyl]-2,4-dihydro-2-(1-methylpropyl)-3H-1,2,4-triazol-3-one], for which the IC50 is 0.3 µM. On the same count and under the same terms, in the case of `Nc1ncn([C@@H]2O[C@H](CO)[C@@H](O)[C@H]2O)c(=O)n1` [5-AZACYTIDINE] it was 1 to 3 µM.

With `CN(C)CCC=C1c2ccccc2CCc2ccccc21` [Amitriptyline], the IC50 lay within 1 to 3 µM. The same measure, in the same setting: in the case of `COc1ccc(C[C@H]2NC[C@H](O)[C@H]2OC(C)=O)cc1` [Anisomycin] it was < 0.1 µM; in that of `C=C1C(=O)O[C@H]2C[C@@H]1C(OC(C)=O)C/C(C)=C/CC/C(C)=C/CC[C@@]2(C)O` (some centres unmarked) [CRASSIN ACETATE], 1 to 3 µM; in that of `Cc1ccc2c(Cl)cc(Cl)c(O)c2n1` [Chlorquinaldol, 5,7-Dichloro-2-methyl-8-quinolinol], 3 µM. The same measure, in the same setting: to `CN1CCN(C2=Nc3ccccc3Sc3ccc(Cl)cc32)CC1` [Clothiapine] belongs 1 to 3 µM; to `C[C@H]1[C@@H](O)O[C@@H]2O[C@@]3(C)CC[C@H]4[C@H](C)CC[C@@H]1[C@@]24OO3` [DIHYDROARTEMISIMIN], 1 to 3 µM.

`CCOC(=O)NC1=C(N2CC2)C(=O)C(NC(=O)OCC)=C(N2CC2)C1=O` [Diaziquone]: the IC50 lay within 0.3 to 1 µM. The same measure, in the same setting: in the case of `CC(=O)Oc1ccc2c(c1)CC[C@@H]1[C@@H]2CC[C@]2(C)[C@@H](O)CC[C@@H]12` [ESTRADIOL ACETATE] it was 1 to 3 µM; in that of `CC12CCC(CC1)C(C)(C)O2` [Eucalyptol], 0.3 to 1 µM. Same read-out and setting: to `OCCOCCN1CCN(C(c2ccccc2)c2ccc(Cl)cc2)CC1` (centres unmarked) [Hydroxyzine] belongs 0.3 to 1 µM. Regarding `CN(C)CCCN1c2ccccc2CCc2ccccc21` [Imipramine], the IC50 was in the range of 1 to 3 µM. Same read-out and setting: to `CN1CCN(C2=Nc3ccccc3Oc3ccc(Cl)cc32)CC1` [LOXAPINE SUCCINATE] belongs 0.1 to 0.3 µM; to `CC[C@H]1/C=C/C=C/C[C@@H](C)[C@H](O)[C@@](C)(O)C(=O)[C@@H](C)[C@H](O)[C@@H](C)C(=O)[C@@H](C)[C@H](O)[C@@H](C)/C=C/C(=O)O[C@@H]2[C@H](C)[C@H](CC1)O[C@]1(CC[C@H](C)[C@H](C[C@@H](C)O)O1)[C@H]2C` [OLIGOMYCIN], < 0.1 µM. Still for that read-out and setting: to `CC(COc1ccccc1)N(CCCl)Cc1ccccc1` (centres unmarked) [PHENOXYBENZAMINE HYDROCHLORIDE] belongs 1 to 3 µM. Same read-out and setting: to `CN1CCC(=C2c3ccccc3Sc3ccccc32)CC1` [PIMETHIXENE MALEATE] belongs 0.3 to 1 µM; to `CN(C)CCCN1c2ccccc2Sc2ccccc21` [PROMAZINE HYDROCHLORIDE], 1 to 3 µM.

Regarding `CC(CN1c2ccccc2Sc2ccccc21)N(C)C` (centres unmarked) [PROMETHAZINE HYDROCHLORIDE], the IC50 lay within 0.3 to 1 µM. Turning to `O=C(c1ccc(OCCN2CCCCC2)cc1)c1c(-c2ccc(O)cc2)sc2cc(O)ccc12` [Raloxifene hydrochloride], the IC50 is 1 to 3 µM. The same measure, in the same setting: to `CC[C@@H](C(=O)[C@@H](C)[C@@H](O)[C@H](C)[C@@H]1O[C@@H]([C@@H](CC)C(=O)O)CC[C@@H]1C)[C@H]1O[C@]2(C=C[C@@H](O)[C@]3(CC[C@@](C)([C@H]4CC[C@](O)(CC)[C@H](C)O4)O3)O2)[C@H](C)C[C@@H]1C` [SALINOMYCIN, SODIUM] belongs < 0.1 µM; to `Nc1ccc(S(=O)(=O)Nc2cnc3ccccc3n2)cc1` [SULFAQUINOXALINE SODIUM], 0.3 to 1 µM.

In the case of `Cc1cc(NS(=O)(=O)c2ccc(N)cc2)nc(C)n1` [Sulfisomidine], the IC50 lay in the range of 0.3 to 1 µM. As to `CC(CN(C)C)CN1c2ccccc2CCc2ccccc21` (centres unmarked) [TRIMIPRAMINE MALEATE], the IC50 fell in the range of 1 to 3 µM.

For `CC[C@]1(O)C[C@@H]2CN(CCc3c([nH]c4ccccc34)[C@@](C(=O)OC)(c3cc4c(cc3OC)N(C)[C@H]3[C@@](O)(C(=O)OC)[C@H](OC(C)=O)[C@]5(CC)C=CCN6CC[C@]43[C@@H]65)C2)C1` [Vinblastine sulfate], the 50% inhibitory concentration (IC50) fell in the range of 0.3 to 1 µM.

With `CC[C@]1(O)C[C@H]2CN(CCc3c([nH]c4ccccc34)[C@@](C(=O)OC)(c3cc4c(cc3OC)N(C=O)[C@H]3[C@@](O)(C(=O)OC)[C@H](OC(C)=O)[C@]5(CC)C=CCN6CC[C@]43[C@@H]65)C2)C1` [Vincristine sulfate], the IC50 is < 0.1 µM. On the same count and under the same terms, to `CC[C@]1(O)C[C@@H]2CN(CCc3c([nH]c4ccccc34)[C@@](C(=O)OC)(c3cc4c(cc3OC)N(C)[C@H]3[C@@](O)(C(N)=O)[C@H](O)[C@]5(CC)C=CCN6CC[C@]43[C@@H]65)C2)C1` [Vindesine] belongs < 0.1 µM; to `CCC1=C[C@@H]2CN(C1)Cc1c([nH]c3ccccc13)[C@@](C(=O)OC)(c1cc3c(cc1OC)N(C)[C@H]1[C@@](O)(C(=O)OC)[C@H](OC(C)=O)[C@]4(CC)C=CCN5CC[C@]31[C@@H]54)C2` [Vinorelbine tartrate], < 0.1 µM; to `c1cc(CN2CCCCC2)cc(OCCCNc2nc3ccccc3s2)c1` [Zolantidine], 1 to 3 µM.

The term IC50 denotes the midpoint of a concentration-inhibition curve.
